# Results published in patent US7598258B2, “Quinoline derivatives and quinazoline derivatives inhibiting autophosphorylation of macrophage colony stimulating factor receptor” (Kirin Beer Kabushiki Kaisha, priority 2002, dated 2009).
# Biological target: T1, mouse c-fms (Mus musculus, UniProt P09581)
# T1 construct: Macrophage-like cell line BAC-1.2F5 which expresses c-fms as a M-CSF receptor on cell membranes; endogenous in cells; host or cells: BAC-1.2F5 mouse macrophage-like cell line
# T1 sequence (P09581 20-977): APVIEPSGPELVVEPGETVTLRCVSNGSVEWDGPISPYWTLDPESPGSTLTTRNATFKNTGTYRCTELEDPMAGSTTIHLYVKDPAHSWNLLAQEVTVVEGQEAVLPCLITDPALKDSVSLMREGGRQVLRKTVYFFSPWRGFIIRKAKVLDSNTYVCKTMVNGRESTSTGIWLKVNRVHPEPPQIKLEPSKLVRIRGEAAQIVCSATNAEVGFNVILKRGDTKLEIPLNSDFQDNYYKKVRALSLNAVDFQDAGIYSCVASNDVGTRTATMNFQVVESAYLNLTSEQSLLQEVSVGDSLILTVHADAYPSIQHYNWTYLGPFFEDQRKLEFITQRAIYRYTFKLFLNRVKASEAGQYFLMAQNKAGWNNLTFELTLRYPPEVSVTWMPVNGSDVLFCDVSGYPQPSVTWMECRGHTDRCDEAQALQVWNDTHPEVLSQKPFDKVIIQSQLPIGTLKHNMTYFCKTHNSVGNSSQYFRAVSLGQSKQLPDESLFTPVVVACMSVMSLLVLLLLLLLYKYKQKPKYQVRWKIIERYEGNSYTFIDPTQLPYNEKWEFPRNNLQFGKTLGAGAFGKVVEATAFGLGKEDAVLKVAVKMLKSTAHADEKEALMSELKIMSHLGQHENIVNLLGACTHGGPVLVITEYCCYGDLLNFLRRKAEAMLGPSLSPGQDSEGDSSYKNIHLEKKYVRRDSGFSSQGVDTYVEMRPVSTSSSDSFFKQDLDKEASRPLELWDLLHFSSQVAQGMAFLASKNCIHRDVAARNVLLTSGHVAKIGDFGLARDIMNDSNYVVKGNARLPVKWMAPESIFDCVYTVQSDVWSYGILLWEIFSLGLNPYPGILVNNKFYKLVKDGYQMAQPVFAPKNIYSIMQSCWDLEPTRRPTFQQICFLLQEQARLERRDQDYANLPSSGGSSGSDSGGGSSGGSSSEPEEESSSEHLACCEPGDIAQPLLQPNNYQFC
# Assay: Inhibition of c-fms autophosphorylation in macrophage-like cell line BAC-1.2F5 by M-CSF stimulation (ELISA)
# Format: cell-based
# Settings: BAC-1.2F5 cells, human recombinant M-CSF 50 ng/ml, read-out: c-fms autophosphorylation 50% inhibitory concentration (IC50)
# Method in brief: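 BAC-1.2F5 cells serum-starved (0.1% FCS) 12 h, preincubated with compound 1 h at 37° C, then stimulated 6 min with 50 ng/ml human recombinant M-CSF. Lysates captured on anti-phosphotyrosine plates, detected with anti-c-fms antiserum and peroxidase read-out at 450 nm. IC50 from inhibition normalised between ±M-CSF controls.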
row,SMILES,IC50 [nM]
1,"COc1cc2nccc(Oc3ccc(NC(=O)NC(C)c4ncc(C)s4)cc3)c2cc1OC (stereo not drawn) [Example 100, N-{4-[(6,7-Dimethoxy-4-quinolyl)oxy]phenyl}-N′-[1-(5-methyl-1,3-thiazol-2-yl)ethyl]urea]",15.7
2,"COc1cc2nccc(Oc3ccc(NC(=O)NC(C)c4ncc(C)s4)c(F)c3)c2cc1OC (stereo not drawn) [Example 101, N-{4-[(6,7-Dimethoxy-4-quinolyl)oxy]-2-fluorophenyl}-N′-[1-(5-methyl-1,3-thiazol-2-yl)ethyl]urea]",20.1
3,"COc1cc2nccc(Oc3ccc(NC(=O)NC(C)c4ncc(C)s4)cc3F)c2cc1OC (stereo not drawn) [Example 102, N-{4-[(6,7-Dimethoxy-4-quinolyl)oxy]-3-fluorophenyl}-N′-[1-(5-methyl-1,3-thiazol-2-yl)ethyl]urea]",20.3
4,"COc1cc2nccc(Oc3ccc(NC(=O)NC(C)c4ncc(C)s4)c(C)c3)c2cc1OC (stereo not drawn) [Example 103, N-{4-[(6,7-Dimethoxy-4-quinolyl)oxy]-2-methylphenyl}-N′-[1-(5-methyl-1,3-thiazol-2-yl)ethyl]urea]",69.6
5,"COc1cc2nccc(Oc3ccc(NC(=O)NC(C)c4ncc(C)s4)c(C(F)(F)F)c3)c2cc1OC (stereo not drawn) [Example 104, N-[4-[(6,7-Dimethoxy-4-quinolyl)oxy]-2-(trifluoromethyl)phenyl]-N′-[1-(5-methyl-1,3-thiazol-2-yl)ethyl]urea]",22
6,"COc1cc(Oc2ccnc3cc(OC)c(OC)cc23)ccc1NC(=O)NC(C)c1ncc(C)s1 (stereo not drawn) [Example 105, N-{4-[(6,7-Dimethoxy-4-quinolyl)oxy]-2-methoxyphenyl}-N′-[1-(5-methyl-1,3-thiazol-2-yl)ethyl]urea]",12.7
